# Test results: patent US10662146B2, “Prodrugs of fencamfamine” (Praxis Bioresearch, LLC, priority 2015, dated 2020)
# Several values for one entry are separate records, joined by “and”; a condition that tells them apart may be missing. Equal values may be shown once. Read-outs that look alike come from different tables or passages of the source.
# Test: Single dose oral PK study in male Sprague Dawley rats (plasma by LC-MS/MS)
# Assay type: in vivo
# Settings: for AUC(0-inf) / AUC(0-t) / half-life / Cmax / MRT last: po; for AUC(0-inf): read-out: AUCinf of PRX-P5-006; for AUC(0-t): read-out: AUClast of PRX-P5-006; for half-life: read-out: T1/2 of PRX-P5-006 (converted); for MRT last: read-out: MRTlast of PRX-P5-006
# Protocol: We describe here PK results of prodrugs of PRX-002 (−) or (+) isomers. All doses of prodrugs were administered such that they were equivalent to 5 mg/kg of PRX-002 (−) or (+) for oral studies and 2 mg/kg PRX-002 (−) or (+) for intravenous studies in male Sprague-Dawley (MSD) rats. Higher doses of up to 10 or 15 mg/kg [again equivalent to PRX-002 (−)] were used in some studies (as specified)]. Formulation preparation, dose administration and time of sample collection was as follows.
# Test item was weighed [5 mg equivalent dose of PRX-002 for prodrugs] and transferred to a graduated tube. Then 10 μL of Tween 80 was added and vortexed mixed until the test item was completely mixed. Small volume of 0.5% (w/v) carboxymethylcellulose in water solution was then added dropwise with continuous vortex mixing until a uniform suspension was obtained. The final volume was then made up to 10 mL with 0.5% (w/v) carboxymethylcellulose in water with final strength of 0.5 mg/mL. […] This formulation was freshly prepared before the administration to animals.
# (§1) Adult male Sprague Dawley Rats aged 8-10 weeks were used for the study. Fasted animals were administered test item by oral route with a dose of 5 mg/kg body weight at dose volume of 10 mL/kg body weight. Under mild isoflurane anesthesia, blood specimens were collected by retro-orbital puncture method using capillary tubes into pre-labeled tubes containing anticoagulant (K2EDTA-2 mg/mL blood) during the next 24 hours of post dose as mentioned in below table. For blood sampling at multiple time points, right and left eyes were used alternatively for blood collection. Collected blood specimens were centrifuged at 4000 rpm, 4° C. for 10 minutes and plasma were separated and stored at −80° C. until analysis.
# Blood was collected as outlined in Table 39.1 (oral).
# (§2) Test item PRX-P4-003 was weighed and transferred to a graduated tube. Then 12.42 μL of Tween 80 was added and vortexed mixed until the test item was completely mixed. Small volume of 0.5% (w/v) Carboxymethylcellulose in water solution was then added dropwise with continuous vortex mixing until a uniform suspension was obtained. The final volume was then made up to 12.42 mL with 0.5% (w/v) Carboxymethylcellulose in water with final strength of 1.0 mgA/mL. […] This formulation was freshly prepared before the administration to animals.
# as §1, with “with a PRX-P4-003” for “test item”, “10” for “5”
# as §2, with “PRX-P5-006” for “PRX-P4-003”, “10” for “12.42”, “3.97 mg/mL.” for “1.0 mgA/mL.”
# Adult male Sprague Dawley Rats aged 8-10 weeks were used for the study. Fasted animals were administered with a PRX-P5-006 by oral route with a dose of 15 mg/kg body weight at dose volume of 10 mL/kg body weight. […]
# [1] = male, Sprague Dawley, rat, in vivo, oral 5 mg/kg [equivalent to PRX-002 (−)], analyte: prodrug in plasma, mean, read-out: Oral PK Parameters Tmax, Prodrug
# [2] = PRX-P5-006 oral 5 mg/kg b.w., individual animals, 5 mg/kg
# [3] = PRX-P5-006 oral 5 mg/kg, mean, 5 mg/kg
# [4] = male, Sprague Dawley, rat, in vivo, 5 mg/kg, PRX-P5-006 oral 5 mg/kg, mean
# [5] = male, Sprague-Dawley, rat, in vivo, 5 mg/kg, PRX-P5-006 oral 5 mg/kg b.w., individual animals
compound,measurement,setting,value
"CCCCCCCCCCCCCCCCCC(=O)OCOC(=O)N(CC)C1C2CCC(C2)C1c1ccccc1 (single isomer, unassigned) [PRX-P4-003, N-(Octadecanoyloxymethoxycarbonyl)-(−)-N-ethyl-3-phenylbicyclo[2.2.1]heptan-2-amine]",Prodrug form present in the plasma,PRX-P4-003 administered orally (FIG. 4),almost none
same,Plasma concentration of PRX-P4-003,"PRX-P4-003 oral 5 mg/kg b.w., 0.00 h, mean",0.00
same,Plasma concentration of PRX-P4-003,"PRX-P4-003 oral 5 mg/kg b.w., 0.08 h, mean",0.00
same,Plasma concentration of PRX-P4-003,"PRX-P4-003 oral 5 mg/kg b.w., 0.25 h, mean",0.00
same,Plasma concentration of PRX-P4-003,"PRX-P4-003 oral 5 mg/kg b.w., 0.50 h, mean",0.00
same,Plasma concentration of PRX-P4-003,"PRX-P4-003 oral 5 mg/kg b.w., 1.00 h, mean",0.00
same,Plasma concentration of PRX-P4-003,"PRX-P4-003 oral 5 mg/kg b.w., 2.00 h, mean",0.00
same,Plasma concentration of PRX-P4-003,"PRX-P4-003 oral 5 mg/kg b.w., 4.00 h, mean",0.00
same,Plasma concentration of PRX-P4-003,"PRX-P4-003 oral 5 mg/kg b.w., 6.00 h, mean",0.00
same,Plasma concentration of PRX-P4-003,"PRX-P4-003 oral 5 mg/kg b.w., 24.00 h, mean",0.00
same,AUC% extrap of PRX-P4-003,"PRX-P4-003 oral 5 mg/kg, mean, 5 mg/kg",0.0 ± 0.0% and 0.0%
same,Plasma concentration of PRX-P4-003,"PRX-P4-003 oral 10 mg/kg b.w., 0.00 h, mean",0.00
same,Plasma concentration of PRX-P4-003,"PRX-P4-003 oral 10 mg/kg b.w., 0.08 h, mean",0.00
same,Plasma concentration of PRX-P4-003,"PRX-P4-003 oral 10 mg/kg b.w., 0.25 h, mean",0.00
same,Plasma concentration of PRX-P4-003,"PRX-P4-003 oral 10 mg/kg b.w., 0.50 h, mean",0.00
same,Plasma concentration of PRX-P4-003,"PRX-P4-003 oral 10 mg/kg b.w., 1.00 h, mean",0.00
same,Plasma concentration of PRX-P4-003,"PRX-P4-003 oral 10 mg/kg b.w., 2.00 h, mean",0.00
same,Plasma concentration of PRX-P4-003,"PRX-P4-003 oral 10 mg/kg b.w., 4.00 h, mean",0.00
same,Plasma concentration of PRX-P4-003,"PRX-P4-003 oral 10 mg/kg b.w., 6.00 h, mean",0.00
same,Plasma concentration of PRX-P4-003,"PRX-P4-003 oral 10 mg/kg b.w., 24.00 h, mean",0.00
same,AUC% extrap of PRX-P4-003,"PRX-P4-003 oral 10 mg/kg, mean",0.0%
same,Active PRX-002 (−) Isomer formed in plasma,"PRX-P4-003 oral administration (FIG. 2, FIG. 4)",desired plasma concentration
same,Tmax,"male, Sprague Dawley, rat, in vivo, PRX-P4-003 oral 10 mg/kg, mean, read-out: Tmax of PRX-P4-003",0 min
same,Tmax,[1],0 min
same,Tmax,"male, Sprague-Dawley, rat, in vivo, PRX-P4-003 oral 5 mg/kg, mean, read-out: Tmax of PRX-P4-003",0 min
"CCCCCCCCCCCCCCCCCC(=O)OC(C)OC(=O)N(CC)C1C2CCC(C2)C1c1ccccc1 (single isomer, unassigned) [PRX-P5-006, N-(1-Octadecanoyloxyethoxycarbonyl)-(−)-N-ethyl-3-phenylbicyclo[2.2.1]heptan-2-amine]",AUC% extrap of PRX-P5-006,[2],62.02% and 50.02% and 31.64%
same,AUCinf of PRX-P5-006,[2],132.93 ng·h/mL and 88.37 ng·h/mL
same,AUClast of PRX-P5-006,[2],66.44 ng·h/mL and 60.40 ng·h/mL
same,Cmax of PRX-P5-006,[2],72.65 ng/mL and 67.85 ng/mL
same,MRTlast of PRX-P5-006,[2],1.05 h
same,T1/2 of PRX-P5-006,[2],3.31 h and 1.91 h
same,AUC% extrap of PRX-P5-006,[3],47.896 ± 15.3010% and 47.896%
same,T1/2 of PRX-P5-006,[3],2.907 h
same,AUC(0-inf),[4],115 ± 23.3 ng·h/mL
same,AUC(0-t),[4],57.8 ± 10.2 ng·h/mL
same,half-life,[4],174 ± 51.9 min
same,Cmax,"male, Sprague Dawley, rat, in vivo, 15 mg/kg, oral 15 mg/kg (footnote *), analyte: prodrug in plasma, mean, read-out: Oral PK Parameters Cmax, Prodrug",81.6 ± 42.2 ng/mL
same,Tmax,[1],0 min
same,AUC,"male, Sprague Dawley, rat, in vivo, oral 15 mg/kg (footnote *), analyte: prodrug in plasma, mean, read-out: Oral PK Parameters AUC, Prodrug",477 ± 54.4 ng·h/mL
same,Tmax,"male, Sprague Dawley, rat, in vivo, oral 15 mg/kg (footnote *), analyte: prodrug in plasma, mean, read-out: Oral PK Parameters Tmax, Prodrug",48 ± 18 min
same,AUC(0-inf),[5],123 ng·h/mL
same,AUC(0-t),[5],46.6 ng·h/mL
same,Cmax,"male, Sprague-Dawley, rat, in vivo, 5 mg/kg, PRX-P5-006 oral 5 mg/kg b.w., individual animals, read-out: Cmax of PRX-P5-006",43.9 ng/mL
same,MRT last,[5],1.1 h
same,half-life,[5],210 min
same,Cmax,"male, Sprague-Dawley, rat, in vivo, 5 mg/kg, PRX-P5-006 oral 5 mg/kg, mean, read-out: Cmax of PRX-P5-006",61.5 ± 15.4 ng/mL
same,MRT last,"male, Sprague-Dawley, rat, in vivo, 5 mg/kg, PRX-P5-006 oral 5 mg/kg, mean",1.07 ± 0.025 h
same,Tmax,"male, Sprague-Dawley, rat, in vivo, PRX-P5-006 oral 5 mg/kg, mean, read-out: Tmax of PRX-P5-006",60 min
